Source: article PMC5537347, “A short D-enantiomeric antimicrobial peptide with potent immunomodulatory and antibiofilm activity against multidrug-resistant Pseudomonas aeruginosa and Acinetobacter baumannii” (Scientific Reports, 2017)
Read-outs that look alike come from different tables or passages of the source.

Columns and labels:
[1] = test system: P. aeruginosa PAO1 biofilm; assay: Disruption of established biofilms, microtiter dish crystal violet assay; assay type: cell-based; conditions: mature (24 hour) biofilm, 24 hours at 37 °C, crystal violet OD 595 nm
Method: Figure 1 Efficacy of peptides on established biofilms of P. aeruginosa PAO1 and A. baumannii ATCC BAA-1605. […] After incubation, wells were washed and biofilms were stained with 0.5% (w/v) crystal violet for 30 minutes. The dye was solubilized with ethanol (95%) and the optical density (595 nm) of the biofilm mass was measured. Experiments were repeated twice independently and the average values are reported.
To examine the peptides’ ability to disrupt bacterial biofilms, the microtiter dish biofilm formation assay was employed[41]–[43].

TNF-α = assay: Anti-inflammatory effect on LPS-stimulated macrophages, ELISA; assay type: cell-based, murine; conditions: J774A.1 cells, LPS 150 ng/mL, six hours
Method: (§1) Figure 3 Ability of peptides to neutralize LPS and reduce inflammatory cytokines expression. (A) LPS binding activity of peptides. Peptides at different concentrations were incubated with one endotoxin unit (EU) of LPS at 37 °C for 30 minutes. […] The binding of peptides with LPS is expressed as percent change relative to the untreated samples. (B) Anti-inflammatory effect of peptides on LPS-stimulated macrophages. J774A.1 cells were stimulated with LPS (150 ng/mL final concentration) in the presence of different concentrations of peptides. Cells stimulated with LPS alone and untreated cells served as controls. Cells were incubated for six hours at 37 °C before the supernatant from each treatment group was collected. Detection of tumor necrosis factor-α (TNF-α) and interleukin-6 (IL-6) in supernatants was determined using ELISA. Cytokine levels are expressed as percent change relative to the LPS-stimulated control. Statistical analysis was calculated using one-way ANOVA, with post hoc Tukey’s multiple comparisons test. P < 0.05 was considered significant. One asterisk (*) indicates significant difference with the negative control.
(§2) To assess the anti-inflammatory effect of our peptides on LPS-stimulated macrophages, J774A.1 cells were seeded and incubated as described above (for toxicity assessment). Next, the cells were stimulated with LPS (150 ng/ml final concentration) in the presence of different concentrations of peptides (RR and D-RR4). Cells stimulated with LPS alone and untreated cells served as controls. Cells were incubated for six hours at 37 °C and the supernatant from each treatment was collected and stored at −20 °C until use. Tumor necrosis factor-α (TNF-α) and interleukin-6 (IL-6) present in the supernatant was quantified using ELISA, as described previously. Cytokine levels were presented as the percent change relative to the LPS-stimulated control, using triplicate samples for each treatment condition.

IL-6 = assay: as above; assay type: cell-based, murine; conditions: J774A.1 cells, LPS 150 ng/mL, six hours
Method: as §1, §2

P. aeruginosa = assay type: cell-based
Description: The broth microdilution technique was utilized to assess the MIC of designed peptides according to the guidelines of the Clinical and Laboratory Standards Institute (CLSI)[37].

[2] = test system: A. baumannii ATCC BAA-1605; assay: C. elegans infection model (bacterial burden and survival); assay type: in vivo, Caenorhabditis elegans; conditions: 8 × MIC
Method: (§3) (A) Evaluation of toxicity of peptides in Caenorhabditis elegans. C. elegans strain glp-4;sek 1 was grown for four days in the presence of peptides at different concentrations. Worms were monitored daily and the live worms were counted. Results are expressed as a Kaplan-Meier survival curve. (B) Evaluation of antimicrobial activity of peptides to reduce the bacterial CFU inside infected Caenorhabditis elegans. […] After treatment, worms were lysed and bacteria were counted. […] Results are expressed as means from three biological replicates ± standard deviation. (C) Efficacy of peptides in a Caenorhabditis elegans model of bacterial infection. […] Worms were monitored daily and the live worms were counted. Results are expressed as a Kaplan-Meier survival curve. C. elegans receiving no treatment served as a negative control.
(§4) Infection and treatment of C. elegans was done, as described previously, with the following modifications, [53], [54]. […] After infection, worms were collected and washed with PBS three times. Worms (~30 per sample) were transferred either to microcentrifuge tubes (for survival assessment) or 96-well plates (for bacterial CFU determination). […] Untreated worms served as a negative control. To assess the survival of infected C. elegans, worms were assessed for viability (live worms are sinusoidal with movement, whereas dead worms are rigid rods). In order to assess the bacterial load in worms, worms were first washed three times with PBS. They were subsequently lysed by addition of 200 mg of 1.0-mm silicon carbide particles (Biospec Products, Bartlesville, OK) to each tube and vortexing for one minute. Bacteria were plated onto TSA plates containing 100 µg/ml ampicillin to permit the selective growth of P. aeruginosa and A. baumannii over Escherichia coli OP50.

P. aeruginosa PAO1 = assay: as above; assay type: in vivo, Caenorhabditis elegans; conditions: 8 × MIC
Method: as §3, §4

[3] = test system: colistin-resistant P. aeruginosa 1109; assay: as above; assay type: in vivo, Caenorhabditis elegans
Method: as §3, §4

[4] = test system: C. elegans strain glp-4;sek 1; assay: Toxicity of peptides in uninfected C. elegans; assay type: in vivo, Caenorhabditis elegans; conditions: worms grown four days with peptide; D-RR4 and colistin at 8 × MIC
Method: To test the efficacy of the synthetic peptides to protect against infections in vivo, we utilized a C. elegans model of bacterial infection. This model has been used extensively for early-stage evaluation of promising antimicrobials, [35], [36]. Initially, the lethal dose of D-RR4 against uninfected nematodes was determined.
(A) Evaluation of toxicity of peptides in Caenorhabditis elegans. C. elegans strain glp-4;sek 1 was grown for four days in the presence of peptides at different concentrations. Worms were monitored daily and the live worms were counted. Results are expressed as a Kaplan-Meier survival curve. (B) Evaluation of antimicrobial activity of peptides to reduce the bacterial CFU inside infected Caenorhabditis elegans. C. elegans strain glp-4; sek 1 were infected with P. aeruginosa PAO1, colistin-resistant P. aeruginosa 1109, or A. baumannii ATCC BAA-1605. […] After treatment, worms were lysed and bacteria were counted. One asterisk (*) indicates significant difference with the negative control. Two asterisks (**) indicates significant difference with the monotherapy treatment (P < 0.05). Results are expressed as means from three biological replicates ± standard deviation. (C) Efficacy of peptides in a Caenorhabditis elegans model of bacterial infection. […] Worms were monitored daily and the live worms were counted. Results are expressed as a Kaplan-Meier survival curve. C. elegans receiving no treatment served as a negative control.

Colistin [reference compound]
biofilm mass disrupted ([1]; 4 × MIC): more than 10% | biofilm mass disrupted ([1]; 8 × MIC): > 25% | biofilm mass disrupted ([1]; 16 × MIC): > 28% | biofilm mass disrupted ([1]; 32 × MIC): > 75% | decrease of TNF-α production (TNF-α; 10 µM): > 95% | decrease of TNF-α production (TNF-α; 20 µM): > 95% | decrease of IL-6 production (IL-6; 10 µM): > 95% | decrease of IL-6 production (IL-6; 20 µM): > 95% | MIC (P. aeruginosa; strain ATCC 9027): 0.25 µM | MIC (P. aeruginosa; strain ATCC 9721): 0.5 µM | MIC (P. aeruginosa; strain ATCC 10145): 0.5 µM | MIC (P. aeruginosa; strain ATCC 15442): 0.25 µM | MIC (P. aeruginosa; strain ATCC 25619): 0.25 µM | MIC (P. aeruginosa; strain ATCC 27853): 0.25 µM | MIC (P. aeruginosa; strain ATCC 35032): 0.5 µM | MIC (P. aeruginosa; strain ATCC BAA-1744): 0.5 µM | MIC (P. aeruginosa; strain PAO1): 0.5 µM | reduction of bacterial burden (CFU) in infected worms [2]: 96% | worms remaining alive ([2]; 36 hours): remained alive | worms remaining alive ([2]; after 72 hours): 80–85% | reduction of bacterial burden (CFU) in infected worms (P. aeruginosa PAO1): 89% | protection of infected worms (survival) (P. aeruginosa PAO1; 24 and 36 hours): nearly complete protection | protection of infected worms (survival) ([3]; D-RR4 8 × MIC, colistin 1 × MIC, after 24 hours): failed to protect worms from death | reduction of bacterial burden (CFU) in infected worms ([3]; in vivo): unable to significantly decrease bacterial burden | toxicity to uninfected worms [4]: not toxic
